Results published in the supplement of paper PMC10307832.

What was measured:
Assay in all cases: relative viability (nuclei count vs DMSO), 5 days (fraction); higher = more cells survive
Trametinib + Decitabine = compound: CC(=O)Nc1cccc(-n2c(=O)n(C3CC3)c(=O)c3c(Nc4ccc(I)cc4F)n(C)c(=O)c(C)c32)c1 [Trametinib] + Nc1ncn([C@H]2C[C@H](O)[C@@H](CO)O2)c(=O)n1 [Decitabine] (partner 2 µM)
Procedure, shortened: (§1)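 Lung cancer cell lines in 1536-well plates were dosed by pin tool the day after seeding, either with one drug alone or with a fixed anchor-drug dose plus five library-drug doses (not always all listed) in √10 steps. After 5 days, cells were fixed and their nuclei stained in one step (final 0.05% Triton X-100, 1% formaldehyde, 1 ug/ml Hoechst), then counted on 4× images. Relative viability is the nuclei count in treated wells divided by that in vehicle wells. Values are medians of duplicate plates.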

[1] = compound: CN1C=C(C2=CC=CC=C21)/C=C\3/C4=C(C=CC=N4)NC3=O + CC(=O)Nc1cccc(-n2c(=O)n(C3CC3)c(=O)c3c(Nc4ccc(I)cc4F)n(C)c(=O)c(C)c32)c1 [Trametinib] (partner 0.02 µM)
Procedure, shortened: as §1

Trametinib + Dasatinib = compound: CC(=O)Nc1cccc(-n2c(=O)n(C3CC3)c(=O)c3c(Nc4ccc(I)cc4F)n(C)c(=O)c(C)c32)c1 [Trametinib] + Cc1nc(Nc2ncc(C(=O)Nc3c(C)cccc3Cl)s2)cc(N2CCN(CCO)CC2)n1 [Dasatinib] (partner 0.075 µM)
Procedure, shortened: as §1

Trametinib + Lapatinib = compound: CC(=O)Nc1cccc(-n2c(=O)n(C3CC3)c(=O)c3c(Nc4ccc(I)cc4F)n(C)c(=O)c(C)c32)c1 [Trametinib] + CS(=O)(=O)CCNCc1ccc(-c2ccc3ncnc(Nc4ccc(OCc5cccc(F)c5)c(Cl)c4)c3c2)o1 [Lapatinib] (partner 2 µM)
Procedure, shortened: as §1

| Cell Line | relative viability (Trametinib + Decitabine; first compound 0.0025 µM) | relative viability (Trametinib + Decitabine; first compound 0.007906 µM) | relative viability (Trametinib + Decitabine; first compound 0.025 µM) | relative viability (Trametinib + Decitabine; first compound 0.07906 µM) | relative viability (Trametinib + Decitabine; first compound 0.25 µM) | relative viability ([1]; first compound 0.02 µM) | relative viability ([1]; first compound 0.6325 µM) | relative viability ([1]; first compound 2 µM) | relative viability (Trametinib + Dasatinib; first compound 0.0025 µM) | relative viability (Trametinib + Dasatinib; first compound 0.007906 µM) | relative viability (Trametinib + Dasatinib; first compound 0.025 µM) | relative viability (Trametinib + Dasatinib; first compound 0.07906 µM) | relative viability (Trametinib + Dasatinib; first compound 0.25 µM) | relative viability ([1]; first compound 0.06325 µM) | relative viability ([1]; first compound 0.2 µM) | relative viability (Trametinib + Lapatinib; first compound 0.0025 µM) | relative viability (Trametinib + Lapatinib; first compound 0.007906 µM) | relative viability (Trametinib + Lapatinib; first compound 0.025 µM) | relative viability (Trametinib + Lapatinib; first compound 0.07906 µM) | relative viability (Trametinib + Lapatinib; first compound 0.25 µM) |
| --- | --- | --- | --- | --- | --- | --- | --- | --- | --- | --- | --- | --- | --- | --- | --- | --- | --- | --- | --- | --- |
| SW 900 | 0.396 | 0.335 | 0.388 | 0.491 | 0.39 | 0.763 | 0.676 | 0.799 | 0.559 | 0.652 | 0.46 | 0.57 | 0.238 |  |  |  |  |  |  |  |
| PC-3 [JPC-3] | 0.807 | 0.724 | 0.757 |  | 0.632 | 0.824 | 0.718 | 0.717 | 1.06 | 0.927 | 0.848 | 0.823 | 0.743 | 0.657 | 0.667 | 0.451 | 0.425 | 0.425 | 0.404 | 0.377 |
| NCI-H1703 |  |  |  |  |  |  |  |  |  |  |  |  |  |  |  |  | 1.09 | 0.887 | 0.96 | 0.859 |
| EPLC-272H | 0.357 | 0.324 | 0.326 | 0.336 | 0.293 | 0.348 | 0.283 | 0.267 | 0.275 | 0.231 | 0.215 | 0.138 | 0.12 | 0.263 |  | 0.911 | 0.56 | 0.493 | 0.609 | 0.125 |
| NCI-H1792 | 0.436 | 0.443 | 0.318 | 0.364 | 0.291 | 0.474 | 0.353 | 0.406 | 0.694 | 0.515 | 0.652 | 0.549 | 0.396 | 0.54 | 0.462 | 0.976 | 0.79 | 0.682 | 0.535 | 0.417 |
| NCI-H2085 | 0.544 | 0.558 | 0.552 | 0.629 | 0.61 | 0.504 | 0.445 | 0.408 | 0.215 | 0.185 | 0.233 | 0.213 | 0.222 | 0.514 | 0.513 | 0.783 | 0.707 | 0.426 | 0.668 | 0.549 |
| LK-2 | 0.309 | 0.259 | 0.181 | 0.18 | 0.147 |  | 0.701 | 0.794 | 0.251 | 0.272 | 0.239 | 0.212 | 0.156 | 0.683 | 0.743 | 0.797 | 0.758 | 0.822 | 0.711 | 0.375 |
| NCI-H1395 | 0.705 | 0.597 | 0.736 | 0.693 | 0.555 | 0.946 | 0.98 | 1.07 | 0.44 | 0.662 | 0.454 | 0.378 | 0.345 | 0.976 | 1.01 | 1.05 | 0.869 | 0.834 | 0.907 | 0.406 |
| ABC-1 | 0.884 | 1.16 | 1.02 | 1.24 | 0.837 |  |  |  | 0.539 | 0.467 | 0.365 | 0.384 | 0.371 |  |  | 0.789 | 1.16 | 1.18 | 1.13 | 1.2 |
| RERF-LC-KJ | 0.683 | 0.68 | 0.609 | 0.695 | 0.475 | 0.887 | 0.804 | 0.822 | 0.7 | 0.741 | 0.794 | 0.731 | 0.554 | 0.835 | 0.771 | 0.812 | 0.822 | 0.79 | 0.744 | 0.568 |
| LU99A | 0.796 | 0.813 | 0.59 | 0.665 | 0.511 | 0.554 | 0.588 | 0.597 | 0.529 | 0.535 | 0.376 | 0.363 | 0.317 | 0.504 | 0.494 | 0.866 | 0.911 | 0.719 | 0.674 | 0.267 |
| NCI-H650 | 0.346 | 0.294 | 0.345 | 0.301 | 0.261 | 0.928 | 0.942 | 0.907 | 0.573 | 0.615 | 0.541 | 0.445 | 0.356 | 0.943 |  | 0.885 | 1.19 | 0.845 | 0.825 | 0.498 |
| NCI-H2347 | 0.521 | 0.514 | 0.395 | 0.358 | 0.397 | 0.246 | 0.319 | 0.274 | 0.234 | 0.16 | 0.162 | 0.172 | 0.149 | 0.271 | 0.296 | 0.961 | 0.56 | 0.503 | 0.435 | 0.452 |
| HARA | 0.606 | 0.469 | 0.474 | 0.421 | 0.422 | 0.673 | 0.605 | 0.492 | 0.225 | 0.275 | 0.367 | 0.18 | 0.185 | 0.635 |  | 0.585 | 0.583 | 0.541 | 0.513 | 0.509 |
| NCI-H2228 |  |  |  |  |  | 0.379 | 0.285 | 0.566 | 0.44 | 0.36 | 0.348 | 0.237 | 0.143 | 0.464 | 0.24 | 0.881 | 0.513 | 0.765 | 0.734 | 0.286 |
